{"source": "paper PMC3993928", "about": "(Journal of Medicinal Chemistry, 2014)", "origin": "cited, not measured here", "key": {"C57BL/6 mice": {"tested_on": "C57BL/6 mice", "conditions": "mouse WWTW"}, "δ opioid receptor (DOPr) [1]": {"molecular_target": "T1, δ opioid receptor (DOPr) (Rattus norvegicus, UniProt P33533)", "T1 sequence (P33533 whole entry)": "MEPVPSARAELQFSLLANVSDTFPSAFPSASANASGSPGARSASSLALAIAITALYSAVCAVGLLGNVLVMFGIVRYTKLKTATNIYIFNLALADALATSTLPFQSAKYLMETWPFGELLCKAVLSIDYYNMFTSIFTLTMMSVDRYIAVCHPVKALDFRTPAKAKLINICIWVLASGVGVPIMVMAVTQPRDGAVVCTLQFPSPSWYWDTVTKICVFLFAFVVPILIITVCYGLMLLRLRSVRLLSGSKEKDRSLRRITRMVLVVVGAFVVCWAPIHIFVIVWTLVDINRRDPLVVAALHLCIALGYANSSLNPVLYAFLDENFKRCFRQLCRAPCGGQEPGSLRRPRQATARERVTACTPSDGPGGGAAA", "conditions": "relative to DPDPE at 10 μM; dns = does not stimulate"}, "μ opioid receptor (MOPr) [2]": {"molecular_target": "T2, μ opioid receptor (MOPr) (Rattus norvegicus, UniProt P33535)", "T2 sequence (P33535 whole entry)": "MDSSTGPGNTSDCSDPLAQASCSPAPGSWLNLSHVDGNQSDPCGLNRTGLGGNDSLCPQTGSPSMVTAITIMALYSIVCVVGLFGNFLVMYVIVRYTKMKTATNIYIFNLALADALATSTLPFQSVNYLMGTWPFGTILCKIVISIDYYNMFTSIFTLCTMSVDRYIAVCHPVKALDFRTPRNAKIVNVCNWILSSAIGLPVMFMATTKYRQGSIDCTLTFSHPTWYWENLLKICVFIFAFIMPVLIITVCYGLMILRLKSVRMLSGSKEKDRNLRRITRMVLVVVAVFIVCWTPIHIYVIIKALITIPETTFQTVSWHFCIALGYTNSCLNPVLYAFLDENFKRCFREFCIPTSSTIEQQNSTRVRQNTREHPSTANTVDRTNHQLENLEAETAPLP", "conditions": "read-out: Ki (nM) MOPr; [3H]diprenorphine displacement"}, "κ opioid receptor (KOPr) [3]": {"molecular_target": "T3, κ opioid receptor (KOPr) (Homo sapiens, UniProt P41145)", "T3 sequence (P41145 whole entry)": "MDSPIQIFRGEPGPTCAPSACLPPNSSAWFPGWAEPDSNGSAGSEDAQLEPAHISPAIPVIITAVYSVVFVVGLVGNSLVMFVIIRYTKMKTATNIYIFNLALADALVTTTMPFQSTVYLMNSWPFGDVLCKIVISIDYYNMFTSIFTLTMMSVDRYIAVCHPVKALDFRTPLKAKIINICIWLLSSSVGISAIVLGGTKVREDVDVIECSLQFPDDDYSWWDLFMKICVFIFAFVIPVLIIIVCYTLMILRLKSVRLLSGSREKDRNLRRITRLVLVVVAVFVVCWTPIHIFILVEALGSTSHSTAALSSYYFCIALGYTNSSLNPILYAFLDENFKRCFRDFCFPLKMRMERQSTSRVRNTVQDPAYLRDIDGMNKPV", "conditions": "relative to U69,593 at 10 μM; dns = does not stimulate"}, "δ opioid receptor (DOPr) [4]": {"molecular_target": "T1, δ opioid receptor (DOPr)", "conditions": "read-out: Ki (nM) DOPr; [3H]diprenorphine displacement"}, "κ opioid receptor (KOPr) [5]": {"molecular_target": "T3, κ opioid receptor (KOPr)", "conditions": "read-out: Ki (nM) KOPr; [3H]diprenorphine displacement"}, "μ opioid receptor (MOPr) [6]": {"molecular_target": "T2, μ opioid receptor (MOPr)", "conditions": "read-out: EC50 (nM), MOPr; [35S]GTPγS binding"}}, "data": [{"molecule": "CN1CC[C@]23c4c5ccc(O)c4O[C@H]2[C@@H](O)C=C[C@H]3[C@H]1C5", "note": "[morphine]", "values": [{"measurement": "duration of antinociceptive action relative to 4 (fold longer)", "setting": "C57BL/6 mice", "result": "approximately 2 fold"}]}, {"molecule": "Dmt-c(SEtS)[DCys-Aci-DPen]OH [compound 1]", "values": [{"measurement": "efficacy (% of control), DOPr", "setting": "δ opioid receptor (DOPr) [1]", "result": "dns"}, {"measurement": "Ki", "setting": "μ opioid receptor (MOPr) [2]", "result": "2.4 ± 0.7", "unit": "nM"}, {"measurement": "efficacy (% of control), KOPr", "setting": "κ opioid receptor (KOPr) [3]", "result": "dns"}, {"measurement": "Ki", "setting": "δ opioid receptor (DOPr) [4]", "result": "2.3 ± 0.5", "unit": "nM"}, {"measurement": "Ki", "setting": "κ opioid receptor (KOPr) [5]", "result": "776 ± 149", "unit": "nM"}, {"measurement": "EC50", "setting": "μ opioid receptor (MOPr) [6]", "result": "4.7 ± 0.7", "unit": "nM"}]}]}
